In patent US5225528A, “Cyclic hexapeptide oxytocin antagonists” (priority 1990, dated 1993):
Like-named read-outs stand apart in the source and are kept apart here. Numbered stars: 1 amine (or outer) side, 2 acyl side, 3 side chain; on linkers, the order of the positions; unused ones are H or OH. Square brackets hold non-standard residues; d marks the D form. Peptide text beside a SMILES is read from it. * marks the point of attachment. NH(2-(imidazol-4-yl)ethyl) = c1ncc(CCN*)[nH]1; dPiz(1,6-dehydro) = O=C(O)[C@H]1CCC=NN1; Ethylenediamine = C(CN[*:2])N[*:1]; NMeI = CC[C@H](C)[C@H](NC)C(=O)O; Pip(4-aza) = O=C(O)[C@@H]1CNCCN1; X6 = O=C([C@H]1CCCNN1[*:1])[*:2]; dNMeF = CN[C@H](Cc1ccccc1)C(=O)O; Pip = O=C(O)[C@@H]1CCCCN1; dPip = O=C(O)[C@H]1CCCCN1; Orn = NCCC[C@H](N)C(=O)O; Cbz = O=C(OCc1ccccc1)*; Dha = C=C(N)C(=O)O; OtBu = CC(C)(C)O*

How the values were obtained:
AVP-V2 sites = target: T1, AVP-V2 sites (Rattus norvegicus, UniProt Q00788); experiment: [^3 H]AVP binding to crude membrane preparation of male rat kidney medulla (AVP-V2 sites); details: read-out: Receptor Binding Results IC50 (nM) [^3 H]-AVP-V2
T1 construct: male rat liver (AVP-V1 sites) or kidney medulla (AVP-V2 sites); from tissue; host or cells: male rat kidney medulla, crude membranes
Method: (§1) Nonspecific binding (5-10% of the total binding) was determined using 10 μM unlabeled AVP, and the binding reaction was terminated by filtration as described above for the [^3 H]OT binding assay.

AVP-V1 sites = target: T2, AVP-V1 sites (Rattus norvegicus, UniProt P30560); experiment: [^3 H]AVP binding to crude membrane preparation of male rat liver (AVP-V1 sites)
T2 construct: crude membrane preparation of male rat liver (AVP-V1 sites); from tissue; host or cells: male rat liver, crude membranes
Method: as §1

uterine OT receptors = target: T3, uterine OT receptors (Rattus norvegicus, UniProt P70536); experiment: [^3 H]OT binding to uterine OT receptors, crude membrane preparation of uteri from DES-treated rats
T3 construct: from tissue; host or cells: uterus of DES-treated rats, crude membranes
T3 sequence (P70536 1-388): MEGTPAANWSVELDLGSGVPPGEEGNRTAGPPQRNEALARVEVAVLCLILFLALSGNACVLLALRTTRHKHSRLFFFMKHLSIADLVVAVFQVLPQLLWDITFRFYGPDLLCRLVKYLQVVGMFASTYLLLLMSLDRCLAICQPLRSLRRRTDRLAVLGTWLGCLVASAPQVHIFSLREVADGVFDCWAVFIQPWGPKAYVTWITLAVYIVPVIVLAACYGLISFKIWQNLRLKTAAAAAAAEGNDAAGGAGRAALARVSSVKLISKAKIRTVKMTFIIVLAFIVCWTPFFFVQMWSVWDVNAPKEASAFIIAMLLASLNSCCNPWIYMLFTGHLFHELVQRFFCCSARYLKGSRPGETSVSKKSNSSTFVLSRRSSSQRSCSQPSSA
Method: Competition studies were conducted at equilibrium (60 minutes; 22° C.) using 1 nM [^3 H]OT in the following assay buffer: 50 mM Tris-HCl, 5 mM MgCl2, and 0.1% BSA, pH 7.4.

[1] = Receptor Binding Results IC50 (nM) [^3 H]-AVP-V1
[2] = Receptor Binding Results IC50 (nM) [^3 H]OT
[3] = rat kidney medulla membranes, 2 nM [^3 H]AVP
[4] = rat uterus membranes, 1 nM [^3 H]OT, read-out: Receptor Binding Results IC50 (nM) [^3 H]OT
[5] = read-out: Receptor Binding Results IC50 (nM) [^3 H]-AVP-V1

T2 sequence (P30560 whole entry): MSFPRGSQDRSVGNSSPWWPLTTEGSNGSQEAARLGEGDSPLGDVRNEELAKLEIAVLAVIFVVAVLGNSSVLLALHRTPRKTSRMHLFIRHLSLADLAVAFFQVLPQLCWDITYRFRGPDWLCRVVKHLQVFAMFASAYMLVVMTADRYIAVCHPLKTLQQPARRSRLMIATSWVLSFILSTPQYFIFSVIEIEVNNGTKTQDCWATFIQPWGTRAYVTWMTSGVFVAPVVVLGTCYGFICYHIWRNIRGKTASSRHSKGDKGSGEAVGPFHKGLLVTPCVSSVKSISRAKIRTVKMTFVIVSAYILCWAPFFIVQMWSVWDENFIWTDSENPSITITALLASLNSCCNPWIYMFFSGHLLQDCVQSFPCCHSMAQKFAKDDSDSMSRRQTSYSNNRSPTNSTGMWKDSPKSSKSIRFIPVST
T1 sequence (Q00788 whole entry): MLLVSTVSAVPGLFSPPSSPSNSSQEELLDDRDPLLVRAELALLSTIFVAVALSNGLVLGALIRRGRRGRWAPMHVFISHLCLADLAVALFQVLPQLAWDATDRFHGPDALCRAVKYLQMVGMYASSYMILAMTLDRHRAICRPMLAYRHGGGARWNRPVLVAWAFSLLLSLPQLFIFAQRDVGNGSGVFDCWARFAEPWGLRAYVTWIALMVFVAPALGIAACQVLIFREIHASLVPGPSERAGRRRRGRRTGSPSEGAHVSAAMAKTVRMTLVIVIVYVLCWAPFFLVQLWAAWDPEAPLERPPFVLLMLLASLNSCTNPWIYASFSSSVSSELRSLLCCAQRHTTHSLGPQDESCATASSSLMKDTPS

Row | IC50 (AVP-V2 sites) [nM] | IC50 (AVP-V1 sites; [5]) [nM] | Compound | IC50 (AVP-V1 sites; [1]) [nM] | IC50 (uterine OT receptors; [2]) [nM] | IC50 (AVP-V2 sites; [3]) [nM] | inhibition at 1 µM (uterine OT receptors; 1 h, @ 1,000 (nM), read-out: [^3 H]OT: percent inhibition of radioligand at the given concentration) [%] | inhibition at 0.1 µM (uterine OT receptors; 1 h, @ 100 (nM), read-out: [^3 H]OT: percent inhibition of radioligand at the given concentration) [%] | IC50 (uterine OT receptors; [4]) [nM]
1 | – | – | CC[C@H](C)[C@@H]1NC(=O)[C@@H](Cc2c[nH]c3ccccc23)NC(=O)[C@@H]2CCCN2C(=O)[C@@H](Cc2c[nH]cn2)NC(=O)[C@H](Cc2c[nH]cn2)NC(=O)[C@H]2CCCN2C1=O [Example 94, c-[D-Tryptophanyl-L-isoleucinyl-D-prolyl-L-histidyl-D-histidyl-L-prolyl]] (cyclo(H[dH]P[dW]I[dP])) | 10000 | – | > 10000 | 64 | – | –
2 | – | – | CC[C@H](C)[C@@H]1NC(=O)[C@@H](Cc2c[nH]c3ccccc23)NC(=O)[C@@H]2CCCN2C(=O)[C@H](Cc2c[nH]cn2)NC(=O)[C@H](CCCNC(=O)OCc2ccccc2)NC(=O)[C@H]2CCCN2C1=O [Example 95, c-[D-Tryptophanyl-L-isoleucinyl-D-prolyl-L-ornithinyl(Cbz)-D-histidyl-L-prolyl]] (cyclo([dW]I[dP][Orn](Cbz)HP)) | > 10000 | – | > 10000 | – | 36 | –
3 | – | – | CC[C@H](C)[C@@H]1NC(=O)[C@@H](Cc2ccccc2)NC(=O)[C@@H]2CCCN2C(=O)[C@@H](Cc2ccccc2)NC(=O)[C@H](CC(N)=O)NC(=O)[C@H]([C@@H](C)O)NC1=O [Example 98, c-[D-Phenylalanyl-L-isoleucyl-L-threonyl-L-asparagyl-D-phenylalanyl-L-prolyl]] (cyclo(ITN[dF]P[dF])) | > 10000 | – | > 10000 | – | – | 7700
4 | – | – | CCOc1ccc(C[C@H]2NC(=O)[C@@H]3CCCN3C(=O)[C@@H](Cc3ccccc3)NC(=O)[C@H](CC(N)=O)NC(=O)[C@@H]([C@H](C)O)NC(=O)[C@H]([C@@H](C)CC)NC2=O)cc1 [Example 99] (cyclo([dY](Et)I[dT]N[dF]P)) | > 10000 | – | > 10000 | – | – | > 10000
5 | – | – | CC[C@H](C)[C@@H]1NC(=O)[C@@H](Cc2ccccc2)NC(=O)[C@@H]2CCCN2C(=O)[C@@H](Cc2ccccc2)NC(=O)[C@H](CC(N)=O)NC(=O)[C@@H](CCC(N)=O)NC1=O [Example 102] (cyclo([dF]I[dQ]N[dF]P)) | > 10000 | – | > 10000 | – | – | > 10000
6 | – | 5690 | CC[C@H](C)[C@@H]1NC(=O)[C@@H](Cc2ccccc2)NC(=O)[C@@H]2CCCN2C(=O)[C@@H](Cc2ccccc2)NC(=O)[C@@H]2CCCCN2C(=O)[C@H]2CCCCN2C1=O [Example 103, c-[D-Phenylalanyl-L-isoleucyl-D-pipecolyl-L-pipecolyl-D-phenylalanyl-L-prolyl]] (cyclo(I[dPip][Pip][dF]P[dF])) | – | – | > 10000 | – | – | 370
7 | – | – | CC[C@H](C)[C@H]1C(=O)N2CCCC[C@@H]2C(=O)N2CCCC[C@H]2C(=O)N(C)[C@H](Cc2ccccc2)C(=O)N2CCC[C@H]2C(=O)N[C@H](Cc2ccccc2)C(=O)N1C [Example 105, c-[D-Phenylalanyl-N-methyl-L-isoleucyl-D-pipecolyl-L-pipecolyl-N-methyl-D-phenylalanyl-L-prolyl]] (cyclo([NMeI][dPip][Pip][dNMeF]P[dF])) | > 10000 | – | > 10000 | – | – | > 10000
8 | – | – | CC[C@H](C)[C@@H]1NC(=O)[C@@H](Cc2ccccc2)NC(=O)[C@@H]2CCCCN2C(=O)[C@@H](Cc2ccccc2)N(C)C(=O)[C@@H]2CCCCN2C(=O)[C@H]2CCCCN2C1=O [Example 108, c-[D-phenylalanyl-L-isoleucyl-D-pipecolyl-L-pipecolyl-N-methyl-D-phenylalanyl-L-pipecolyl]] (cyclo(I[dPip][Pip][dNMeF][Pip][dF])) | 10000 | 655 | 10000 | – | – | –
9 | 3500 | 4200 | CC[C@H](C)[C@@H]1NC(=O)[C@@H](Cc2ccccc2)NC(=O)[C@@H]2CCCN2C(=O)[C@@H](Cc2ccccc2)N(C)C(=O)[C@@H]2CCCCN2C(=O)[C@H]2CCCNN2C1=O [Example 111, c-[D-Phenylalanyl-L-isoleucyl-D-piperazyl-L-pipecolyl-N-methyl-D-phenylalanyl-L-prolyl]] (cyclo(I[X6][Pip][dNMeF]P[dF])) | – | – | – | – | – | 111
10 | 1170 | 3450 | CC[C@H](C)[C@@H]1NC(=O)[C@@H](Cc2ccccc2)NC(=O)[C@@H]2CCCN2C(=O)[C@@H](Cc2ccccc2)N(C)C(=O)[C@@H]2CCCCN2C(=O)[C@H]2CCC=NN2C1=O [Example 112, c-[D-Phenylalanyl-L-isoleucyl-D-Δ-piperazyl-L-pipecolyl-N-methyl-D-phenylalanyl-L-prolyl]] (cyclo(I[dPiz(1,6-dehydro)][Pip][dNMeF]P[dF])) | – | – | – | – | – | 14.7
11 | – | – | CC[C@H](C)[C@@H]1NC(=O)[C@@H](Cc2ccccc2)NC(=O)[C@@H]2CCCN2C(=O)[C@@H](Cc2ccccc2)N(C)C(=O)[C@H](CO)NC(=O)[C@H]2CCCN2C1=O [Example 114, c-[D-Phenylalanyl-L-isoleucyl-D-prolyl-L-seryl-N-methyl-D-phenylalanyl-L-prolyl]] (cyclo(I[dP]S[dNMeF]P[dF])) | > 10000 | – | > 10000 | – | – | 675
12 | – | – | CC[C@H](C)[C@@H]1NC(=O)[C@@H](Cc2ccccc2)NC(=O)[C@@H]2CCCN2C(=O)[C@@H](Cc2ccccc2)N(C)C(=O)[C@H](CC(=O)OC(C)(C)C)NC(=O)[C@H]2CCCCN2C1=O [Example 115, c-[D-Phenylalanyl-L-isoleucyl-D-pipecolyl(O-tert-butyl)-L-aspartyl-N-methyl-D-phenylalanyl-L-prolyl]] (cyclo(D(OtBu)[dNMeF]P[dF]I[dPip])) | > 10000 | – | 10000 | – | – | 460
13 | – | – | CC[C@H](C)[C@@H]1NC(=O)[C@@H](Cc2ccccc2)NC(=O)[C@@H]2CCCN2C(=O)[C@@H](Cc2ccccc2)N(C)C(=O)[C@H](CC(=O)O)NC(=O)[C@H]2CCCCN2C1=O [Example 116, c-[D-Phenylalanyl-L-isoleucyl-D-pipecolyl-L-aspartyl-N-methyl-D-phenylalanyl-L-prolyl]] (cyclo(D[dNMeF]P[dF]I[dPip])) | > 10000 | – | > 10000 | – | – | 1450
14 | – | – | C=C1NC(=O)[C@H]2CCCN2C(=O)[C@H]([C@@H](C)CC)NC(=O)[C@@H](Cc2ccccc2)NC(=O)[C@@H]2CCCN2C(=O)[C@@H](Cc2ccccc2)N(C)C1=O [Example 117, c-[D-Phenylalanyl-L-isoleucyl-D-prolyl-dehydroalanyl-N-methyl-D-phenylalanyl-L-prolyl]] (cyclo([Dha][dNMeF]P[dF]I[dP])) | > 10000 | – | > 10000 | – | – | > 10000
15 | – | – | CC[C@H](C)[C@@H]1NC(=O)[C@@H](Cc2ccccc2)NC(=O)[C@@H]2CCCN2C(=O)[C@@H](Cc2ccccc2)N(C)C(=O)[C@H](CC(N)=O)NC(=O)[C@H]2CCCCN2C1=O [Example 118, c-[D-Phenylalanyl-L-isoleucyl-D-pipecolyl-L-asparagyl-N-methyl-D-phenylalanyl-L-prolyl]] (cyclo(I[dPip]N[dNMeF]P[dF])) | > 10000 | – | 10000 | – | – | 345
16 | 3100 | 7300 | CC[C@H](C)[C@@H]1NC(=O)[C@@H](Cc2ccccc2)NC(=O)[C@@H]2CCCN2C(=O)[C@@H](Cc2ccccc2)N(C)C(=O)[C@H](CC(=O)NCCN)NC(=O)[C@H]2CCCCN2C1=O [Example 119, c-[D-Phenylalanyl-L-isoleucyl-D-pipecolyl-N^β -(aminoethyl)-L-asparagyl-N-methyl-D-phenylalanyl-L-prolyl]] (cyclo(D(Ethylenediamine)[dNMeF]P[dF]I[dPip])) | – | – | – | – | – | 260
17 | – | – | CC[C@H](C)[C@@H]1NC(=O)[C@@H](Cc2ccccc2)NC(=O)[C@@H]2CCCN2C(=O)[C@@H](Cc2ccccc2)N(C)C(=O)[C@H](CC(=O)NCCc2c[nH]cn2)NC(=O)[C@H]2CCCCN2C1=O [Example 120, c-[D-Phenylalanyl-L-isoleucyl-D-pipecolyl-N^β -(imidazolylethyl)-L-asparagyl-N-methyl-D-phenylalanyl-L-prolyl]] (cyclo(D(NH(2-(imidazol-4-yl)ethyl))[dNMeF]P[dF]I[dPip])) | 10000 | – | 10000 | – | – | 120

Row | Compound | IC50 (AVP-V2 sites) [nM] | IC50 (AVP-V1 sites; [5]) [nM] | IC50 (AVP-V1 sites; [1]) [nM] | IC50 (uterine OT receptors; [2]) [nM] | IC50 (AVP-V2 sites; [3]) [nM] | inhibition at 1 µM (uterine OT receptors; 1 h, @ 1,000 (nM), read-out: [^3 H]OT: percent inhibition of radioligand at the given concentration) [%] | inhibition at 0.1 µM (uterine OT receptors; 1 h, @ 100 (nM), read-out: [^3 H]OT: percent inhibition of radioligand at the given concentration) [%] | IC50 (uterine OT receptors; [4]) [nM]
18 | CC[C@H](C)[C@@H]1NC(=O)[C@@H](Cc2c[nH]c3ccccc23)NC(=O)[C@@H]2CCCN2C(=O)[C@@H](Cc2ccccc2)N(C)C(=O)[C@@H]2CNCCN2C(=O)[C@H]2CCCCN2C1=O [Example 92, c-[D-Tryptophanyl-L-isoleucinyl-D-pipecolyl-L-piperazin-2-yl-D-(N^α -methyl)phenylalanyl-L-prolyl]] (cyclo(I[dPip][Pip(4-aza)][dNMeF]P[dW])) | 750 | – | > 10000 | 7.7 | – | – | – | –
